Measured values published in US20230265068A1, “TRANSIENT RECEPTOR POTENTIAL CANONICAL 3 INHIBITORS AND METHODS OF USE THEREOF” (University of Tennessee Research Foundation, priority 2020, published 2023).

Assays:
[1] = metabolic stability in human liver microsomes; type: in vitro ADME; details: human, microsomes
Method: (§1) The metabolic stability of compound 22 was tested prior to the next phase of in vivo study. […] The maximum tolerated dose (MTD) study was subsequently performed to investigate its in vivo toxicity (FIGS. 4A and 4B). The second major limitation of Pyr3 is its toxicity due to its alkylating tail moiety. While replacing only the fast-metabolizing head ester group in Pyr3 with a stable amide (compound 79) improved metabolic stability, a single IP injection of compound 79 at 200 mg/kg killed all mice within 24 h.

PTZ-induced seizures = test: mouse pentylenetetrazole (PTZ) model of SE; type: in vivo, mice; details: 100 mg/kg, i.p., 30 min before PTZ; vs vehicle
Method: FIGS. 8A-8B show the inhibition of TRPC3 channels by compound 22 reduces susceptibility of animals to PTZ-induced seizures. Young adult C57BL/6 mice (male, 8-9 weeks) were first treated by compound 22 (100 mg/kg, i.p.), and 30 minutes later by pentylenetetrazole (PTZ, 80±5 mg/kg, s.c.) for the induction seizures. (FIG. 8A) Percentages of mice reaching myoclonic jerk (MJ, Left) and generalized tonic-clonic seizure (GTCS, Right) were compared between vehicle and compound 22-treated mice by Mantel-Cox log-rank test. (FIG. 8B) Latencies to the first MJ (Left) and first GTCS (Right) were compared between vehicle and compound 22 by t-test. Data are shown as mean+SEM (number of mice N=9 for vehicle; 10 for compound 22).
To ensure that the efficacy observed in FIG. 7 is not associated with this particular mouse model of epilepsy, we examined the effects of our current lead compound 22 on pentylenetetrazole (PTZ)-induced seizures in mice. As a GABA receptor antagonist, PTZ is another convulsant chemical commonly used to generate seizures in experimental rodents. Young adult C57BL/6 mice (male, 8-9 weeks) were first treated by 22 (100 mg/kg, i.p.) or vehicle. Thirty minutes later, mice were subcutaneously injected with (PTZ, ˜80 mg/kg) to induced seizures. Animals were placed in a plexiglass chamber, and the latencies to the first myoclonic jerk (MJ) and the first generalized tonic-clonic seizure (GTCS) were recorded during a 30-min period of observation. […] Given that PTZ (FIG. 8) and pilocarpine (FIG. 7) trigger seizures via different mechanisms of actions, it is unlikely the anti-seizure effects of our lead compound 22 are model-specific.

[2] = maximum tolerated dose / in vivo toxicity study in mice; details: 200 mg/kg/day IP for five consecutive days
Method: The in vivo study was performed in compliance with the NIH Animal Use Guidelines and protocol approved by the Institutional Animal Care and Use Committee (IACUC) at the University of Tennessee Health Science Center (UTHSC, Memphis, Tenn.). NSG mice at 8 weeks (n=2) and ICR mice at 12 weeks (n=3) were housed with a 12:12-hour light-dark cycle and fed a breeder chow diet. Daily IP injections of 200 mg/kg of compounds 22 or 79 were administered for five consecutive injections in five mice, respectively, which were followed to monitor the mortality rate. Body weights of the mice were recorded daily.
as §1
Compound 79 is a metabolically stable version of Pyr3. Mice treated daily with compound 22 or compound 79 (n=5) for 5 consecutive days. All the mice were treated with either compound 22 or 79 at 200 mg/kg (IP). […]

TRPC3 = target: T1, TRPC3 (Homo sapiens, UniProt Q13507); test: LC-MS detection of compound bound to affinity-purified TRPC3 protein after size-exclusion chromatography; type: binding; parameters: made in house; details: 1 h incubation, free compound removed
T1 sequence (Q13507 1-921): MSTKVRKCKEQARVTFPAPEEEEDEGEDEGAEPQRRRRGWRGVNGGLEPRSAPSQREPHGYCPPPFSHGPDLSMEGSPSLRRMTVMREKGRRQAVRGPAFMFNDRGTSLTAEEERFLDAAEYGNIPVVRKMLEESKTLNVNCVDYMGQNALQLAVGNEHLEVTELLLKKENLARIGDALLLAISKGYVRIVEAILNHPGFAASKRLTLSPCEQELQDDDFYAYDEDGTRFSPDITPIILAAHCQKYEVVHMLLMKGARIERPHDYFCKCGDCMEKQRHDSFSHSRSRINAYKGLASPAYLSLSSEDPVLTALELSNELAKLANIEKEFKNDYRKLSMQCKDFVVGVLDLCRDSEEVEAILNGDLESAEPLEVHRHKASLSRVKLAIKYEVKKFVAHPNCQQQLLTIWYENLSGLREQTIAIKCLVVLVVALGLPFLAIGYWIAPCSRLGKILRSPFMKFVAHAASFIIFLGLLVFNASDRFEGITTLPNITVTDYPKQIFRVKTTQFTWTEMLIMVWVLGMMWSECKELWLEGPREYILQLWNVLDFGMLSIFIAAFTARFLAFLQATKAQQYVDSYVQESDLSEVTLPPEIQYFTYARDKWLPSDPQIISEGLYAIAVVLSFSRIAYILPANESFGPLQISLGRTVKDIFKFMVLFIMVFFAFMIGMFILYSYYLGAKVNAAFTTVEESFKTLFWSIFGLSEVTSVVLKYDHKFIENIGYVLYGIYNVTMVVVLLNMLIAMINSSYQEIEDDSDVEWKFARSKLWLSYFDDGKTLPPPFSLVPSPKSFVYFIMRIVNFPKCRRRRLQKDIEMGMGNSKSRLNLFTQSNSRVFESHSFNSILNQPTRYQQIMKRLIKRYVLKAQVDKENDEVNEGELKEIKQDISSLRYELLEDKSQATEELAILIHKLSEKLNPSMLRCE
Method: LC-MS technique was employed to find some evidence of the on-target engagement of compound 22 with TRPC3. Biochemical quantities of affinity-purified TRPC3 protein was successfully generated before and was confirmed by SDS-PAGE.21 After incubation of compound 22 with TRPC3 protein for 1 h, repeated size-exclusion chromatography was used to completely remove free compound 22 from the protein-bound fraction. Methanol was then added to this complex to denature the protein and extract the bound compound.

In the case of `CCNC(=O)c1cnn(-c2ccc(-n3ccc(Cl)c(Cl)c3=O)cc2)c1C(F)(F)F` [Compound 22], the half-life [1] is reported as greater than 4 h, the “latency to first GTCS” value (PTZ-induced seizures) is reported as “significantly increased” and the “latency to first MJ” value (PTZ-induced seizures) is reported as “significantly increased”. For the same molecule, the “percentage of mice that reached generalized tonic-clonic seizure (GTCS)” value (PTZ-induced seizures) was “substantially reduced”, the “percentage of mice that reached myoclonic jerk (MJ)” value (PTZ-induced seizures) was “substantially reduced” and the “acute toxicities / body weight loss” value [2] was “no acute toxicities or body weight loss”. For the same molecule, the “binding to TRPC3 protein (compound detected by LC-MS in extract of purified complex)” value (TRPC3) was “direct binding”.
